# From patent publication US20220211037A1, “BIOSENSORS FOR DROUGHT STRESS IN PLANTS” (The Regents of the University of California, priority 2019, published 2022)
# Read-outs that look alike come from different tables or passages of the source.
# Key:
# [1] = biological target: T1, PYL3-Cy5.5/PYL3-BHQ3 heterodimer mixture (Arabidopsis thaliana, UniProt Q9SSM7); experiment: Fluorescence of 1:1 PYL3-Cy5.5 / PYL3-BHQ3 mixture as a function of ABA concentration; type: biochemical; details: for Fluorescence from Cy5.5 in monomers / Sum of Cy5.5 fluorescence / Total fluorescence / Fluorescence from Cy5.5 in heterodimers / Fluorescence from Cy5.5 in homodimers: calculated; for Total fluorescence: BHQ3 concentration attenuation factor 0.27; for Fluorescence from Cy5.5 in heterodimers: FRET quenching factor 0.1; for Fluorescence from Cy5.5 in homodimers: self-quenching factor 0.8
# T1 construct: made in house; host or cells: E. coli BL21[DE3], pET28
# T1 sequence (Q9SSM7 1-209) 1: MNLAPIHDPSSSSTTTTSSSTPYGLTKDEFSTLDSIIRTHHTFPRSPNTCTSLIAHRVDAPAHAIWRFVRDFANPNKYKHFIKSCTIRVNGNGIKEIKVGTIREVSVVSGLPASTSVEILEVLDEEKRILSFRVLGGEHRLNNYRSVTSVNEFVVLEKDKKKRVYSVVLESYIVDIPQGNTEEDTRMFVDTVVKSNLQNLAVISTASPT
# T1 sequence (Q9SSM7 1-209) 2: T1 sequence (Q9SSM7 1-209) 1
# Procedure: This increase should arise from more dissociated PYL3-Cy5.5/PYL3-BHQ3 monomers, which lead to decreased FRET quenching of Cy5.5 by BHQ3 in the heterodimers and decreased self-quenching from Cy5.5 in PYL3-Cy5.5/PYL3-Cy5.5 homodimers as shown in FIG. 2C. Assuming BHQ3 in PYL3-BHQ3 behaves similarly as free BHQ3 in solutions, BHQ3 concentration dependent attenuation (FIG. 3D) is 64%, i.e., fluorescence is decreased to 36% of the signal of pure Cy5.5, at the BHQ3-PYL3 concentration of 4.0 μM used in the measurements. FRET quenching of Cy5.5 by BHQ3 in heterodimers is assumed to be 90%. […] In calculating the final fluorescence intensities (Total fluorescence) in Table 1, we employ the self-quenching, FRET quenching and BHQ3 concentration-dependent attenuation efficiency of 20%, 90% and 73.2%, respectively. The corresponding factors are 0.8, 0.1 and 0.27, respectively. The BHQ3 concentration dependent attenuation efficiency is slightly higher than 64% measured using a mixture of 4 μM of Cy5.5 and 4 μM BHQ3. The calculated final fluorescence intensities are within the standard deviations of the measured values.
# For the data presented in Table 1, a self-quenching efficiency of 20% and BHQ3 concentration dependent quenching shown in FIG. 3C are used for calculation together with a calibrated fluorescence intensity of 79,653 cps from 4.65 μM Cy5.5. Units of fluorescence intensity are counts per second (cps). The values are calculated unless specified otherwise.^a Fluorescence intensity=amount of Cy5.5×calibrated unit fluorescence intensity.^b Fluorescence intensity=amount of Cy5.5×self-quenching factor (0.8)×calibrated unit fluorescence intensity.^c Fluorescence intensity=amount of Cy5.5×FRET quenching factor (0.1)×calibrated unit fluorescence intensity.^d Sum of a, b, and c.^e Total fluorescence=BHQ3 concentration attenuation factor (0.27)×d.
# PYL3-Cy5.5 homodimers [2] = biological target: T2, PYL3-Cy5.5 homodimers (Arabidopsis thaliana, UniProt Q9SSM7); experiment: Static light scattering (SLS) average molecular mass of PYL3-Cy5.5 as a function of ABA concentration; type: biochemical
# T2 construct: made in house; host or cells: E. coli BL21[DE3], pET28
# T2 sequence (Q9SSM7 1-209): T1 sequence (Q9SSM7 1-209) 1
# Procedure: (§1) UV-Vis absorption measurements were performed on PYL3-Cy5.5, PYL3-BHQ3, and a 1:1 mixture of PYL3 containing PYL3-Cy5.5 and PYL3-BHQ3 (Shimadzu UV-Vis-NIR spectrophotometer, UV1700). […] Static light scattering (SLS) was used to determine the average molar mass (Malvern Zetasizer Nano S90 fitted with a 633 nm He—Ne laser). The mass of PYL3, PYL3-Cy5.5 and PYL3-BHQ3 was measured using Bruker UltraFlextreme MALDI TOF. Samples for MALDI-TOF measurement were prepared using a dried droplet method in a 2,5-Dihydroxyacetophenone (2,5-DHAP) matrix. The mass spectra were acquired with laser repetition frequency of 0.7-1 kHz.
# Results from Static Light Scattering (SLS) measurements were used to estimate average molecular mass (FIG. 2D) based on molecular motion in solution, although the method is controversial when the molecular mass is on the order of a few thousand atomic mass units.
# PYL3-Cy5.5 homodimers [3] = biological target: T2, PYL3-Cy5.5 homodimers; experiment: Fluorescence of PYL3-Cy5.5 as a function of ABA concentration (self-quenching); type: biochemical
# Procedure: as §1
# Fluorescence from PYL3 and BHQ3-PYL3 homodimers in aqueous solution is weak, whereas fluorescence from PYL3-Cy5.5 homodimers (FIG. 2B) was as similarly intense as that of Cy5.5. […] If there is no change to the fluorescence intensity, then no self-quenching occurs. […] This quenching efficiency was used to estimate the quenching efficiency between Cy5.5 and BHQ3 in PYL3 heterodimers.
# [4] = biological target: T3, PYL3-Cy5.5 and PYL3-BHQ3 dimers (hetero- and homodimers) (Arabidopsis thaliana, UniProt Q9SSM7); experiment: Static light scattering (SLS) average molar mass of PYL3-Cy5.5 / PYL3-BHQ3 mixture as a function of ABA concentration; type: biochemical; details: for PYLs in dimers (hetero- and homodimers, %) / PYLs in monomers (%): calculated using the SLS data
# T3 construct: made in house; host or cells: E. coli BL21[DE3], pET28
# T3 sequence (Q9SSM7 1-209) 1: T1 sequence (Q9SSM7 1-209) 1
# T3 sequence (Q9SSM7 1-209) 2: T1 sequence (Q9SSM7 1-209) 1
# Procedure: as §1
# [5] = biological target: T4, homodimeric receptor PYL3 (Arabidopsis thaliana, UniProt Q9SSM7); details: read-out: equilibrium dissociation constant (Kd) of homodimeric receptor PYL3, cited from earlier work
# T4 sequence (Q9SSM7 1-209): T1 sequence (Q9SSM7 1-209) 1
compound,measurement,setting,value
"CC1=CC(=O)CC(C)(C)[C@@]1(O)/C=C/C(C)=C\C(=O)O [ABA, abscisic acid]",ABA concentration the current design can detect,[1],200 nM
same,Fluorescence (measured),[1]; ABA 0.1 μM,3960 cps
same,Fluorescence from Cy5.5 in monomers,[1]; ABA 0.1 μM,630 cps
same,Sum of Cy5.5 fluorescence,[1]; ABA 0.1 μM,14553 cps
same,Total fluorescence,[1]; ABA 0.1 μM,4045 cps
same,Fluorescence from Cy5.5 in heterodimers,[1]; ABA 0.1 μM,1575 cps
same,Fluorescence from Cy5.5 in homodimers,[1]; ABA 0.1 μM,12348 cps
same,Fluorescence (measured),[1]; ABA 1.0 μM,4292 cps
same,Fluorescence from Cy5.5 in monomers,[1]; ABA 1.0 μM,5040 cps
same,Sum of Cy5.5 fluorescence,[1]; ABA 1.0 μM,16974 cps
same,Total fluorescence,[1]; ABA 1.0 μM,4718 cps
same,Fluorescence from Cy5.5 in heterodimers,[1]; ABA 1.0 μM,1350 cps
same,Fluorescence from Cy5.5 in homodimers,[1]; ABA 1.0 μM,10584 cps
same,Fluorescence (measured),[1]; ABA 40 μM,5301 cps
same,Fluorescence from Cy5.5 in monomers,[1]; ABA 40 μM,10080 cps
same,Sum of Cy5.5 fluorescence,[1]; ABA 40 μM,19741 cps
same,Total fluorescence,[1]; ABA 40 μM,5488 cps
same,Fluorescence from Cy5.5 in heterodimers,[1]; ABA 40 μM,1092 cps
same,Fluorescence from Cy5.5 in homodimers,[1]; ABA 40 μM,8568 cps
same,Fluorescence (measured),[1]; ABA 100 μM,6711 cps
same,Fluorescence from Cy5.5 in monomers,[1]; ABA 100 μM,21420 cps
same,Sum of Cy5.5 fluorescence,[1]; ABA 100 μM,25866 cps
same,Total fluorescence,[1]; ABA 100 μM,7218 cps
same,Fluorescence from Cy5.5 in heterodimers,[1]; ABA 100 μM,514 cps
same,Fluorescence from Cy5.5 in homodimers,[1]; ABA 100 μM,4032 cps
same,Fluorescence (measured),[1]; ABA 1000 μM,9494 cps
same,Fluorescence from Cy5.5 in monomers,[1]; ABA 1000 μM,25200 cps
same,Sum of Cy5.5 fluorescence,[1]; ABA 1000 μM,28035 cps
same,Total fluorescence,[1]; ABA 1000 μM,7793 cps
same,Fluorescence from Cy5.5 in heterodimers,[1]; ABA 1000 μM,315 cps
same,Fluorescence from Cy5.5 in homodimers,[1]; ABA 1000 μM,2520 cps
same,change of fluorescence intensity of the mixture,[1]; ABA increased from less than one μM to one mM,more than doubled
same,increase of fluorescence signal of the mixture,[1]; upon mixing with 100 μM ABA,more than 50%
same,PYL3-Cy5.5 in the homodimer form,PYL3-Cy5.5 homodimers [2]; 0.1 μM ABA,94%
same,average molecular mass (SLS),PYL3-Cy5.5 homodimers [2]; 0.1 μM ABA,50 kDa
same,PYL3-Cy5.5 in the monomeric form,"PYL3-Cy5.5 homodimers [2]; 0.1 μM ABA, 51.6 kDa homodimers, 25.8 kDa monomers chosen",6%
same,PYL3-Cy5.5 in the homodimer form,PYL3-Cy5.5 homodimers [2]; 1 mM ABA,24%
same,PYL3-Cy5.5 in the monomeric form,PYL3-Cy5.5 homodimers [2]; 1 mM ABA,76%
same,average molecular mass (SLS),PYL3-Cy5.5 homodimers [2]; 1 mM ABA,30 kDa
same,decrease of average molecular mass of the species in solution,PYL3-Cy5.5 homodimers [2]; ABA increases from 100 nM to 40 μM,~20%
same,further decrease of average molecular mass of the species in solution,PYL3-Cy5.5 homodimers [2]; ABA increases from 50 to 100 μM,20%
same,increase of fluorescence intensity of PYL3-Cy5.5,"PYL3-Cy5.5 homodimers [3]; ABA increases from 0.1 μM to 1 mM, on average",20%
same,average molecule mass (SLS) of PYL3-Cy5.5 / PYL3-BHQ3 mixture,[4]; 100 nM ABA,50 kDa
same,"Average molar mass (measured, amu)",[4]; ABA 0.1 μM,51110 amu
same,"PYLs in dimers (hetero- and homodimers, %)",[4]; ABA 0.1 μM,98%
same,PYLs in monomers (%),[4]; ABA 0.1 μM,2%
same,"Average molar mass (measured, amu)",[4]; ABA 1.0 μM,47410 amu
same,"PYLs in dimers (hetero- and homodimers, %)",[4]; ABA 1.0 μM,84%
same,PYLs in monomers (%),[4]; ABA 1.0 μM,16%
same,"Average molar mass (measured, amu)",[4]; ABA 40 μM,43330 amu
same,"PYLs in dimers (hetero- and homodimers, %)",[4]; ABA 40 μM,68%
same,PYLs in monomers (%),[4]; ABA 40 μM,32%
same,"Average molar mass (measured, amu)",[4]; ABA 100 μM,34050 amu
same,"PYLs in dimers (hetero- and homodimers, %)",[4]; ABA 100 μM,32%
same,PYLs in monomers (%),[4]; ABA 100 μM,68%
same,"Average molar mass (measured, amu)",[4]; ABA 1000 μM,31080 amu
same,"PYLs in dimers (hetero- and homodimers, %)",[4]; ABA 1000 μM,20%
same,PYLs in monomers (%),[4]; ABA 1000 μM,80%
PYL3-Cy5.5: PYL3 protein monomer chemically conjugated to the fluorescent molecule Cy5.5,self-quenching in the PYL3-Cy5.5 homodimers,"PYL3-Cy5.5 homodimers [3]; absence of ABA, aqueous solution",at least 20%
"PYL3: Arabidopsis abscisic acid receptor PYL3 (SEQ ID NO:4), recombinant, forms homodimers that monomerize upon ABA binding",Kd,[5]; at saturating ABA concentrations,52 µM
same,Kd,[5]; without ABA,7.76 µM
